structure (smiles),measurement,setting,value
Nc1cc(C(=O)O)ccc1C(=O)O,solubility (mole fraction),"in ethanol, 303.15 K",0.0349
same,solubility (mole fraction),"in ethanol, 308.15 K",0.0383
same,solubility (mole fraction),"in ethanol, 313.15 K",0.0422
same,solubility (mole fraction),"in ethanol, 318.15 K",0.0461
same,solubility (mole fraction),"in ethanol, 323.15 K",0.051
same,solubility (mole fraction),"in ethanol, 328.15 K",0.0552
same,solubility (mole fraction),"in ethanol, 333.15 K",0.06
same,solubility (mole fraction),"in ethanol, 338.15 K",0.0655
same,solubility (mole fraction),"in isopentanol, 303.15 K",0.00536
same,solubility (mole fraction),"in isopentanol, 308.15 K",0.00583
same,solubility (mole fraction),"in isopentanol, 313.15 K",0.00643
same,solubility (mole fraction),"in isopentanol, 323.15 K",0.00764
same,solubility (mole fraction),"in isopentanol, 333.15 K",0.00895
same,solubility (mole fraction),"in isopentanol, 338.15 K",0.00972
same,solubility (mole fraction),"in isopropanol, 303.15 K",0.0211
same,solubility (mole fraction),"in isopropanol, 308.15 K",0.0236
same,solubility (mole fraction),"in isopropanol, 318.15 K",0.0293
same,solubility (mole fraction),"in isopropanol, 323.15 K",0.0326
same,solubility (mole fraction),"in isopropanol, 338.15 K",0.0441
same,solubility (mole fraction),"in methanol, 303.15 K",0.0685
same,solubility (mole fraction),"in methanol, 313.15 K",0.0794
same,solubility (mole fraction),"in methanol, 318.15 K",0.0853
same,solubility (mole fraction),"in methanol, 323.15 K",0.0917
same,solubility (mole fraction),"in methanol, 328.15 K",0.0982
same,solubility (mole fraction),"in methanol, 333.15 K",0.105
same,solubility (mole fraction),"in methanol, 338.15 K",0.112
same,solubility (mole fraction),"in n-butanol, 303.15 K",0.00721
same,solubility (mole fraction),"in n-butanol, 308.15 K",0.00854
same,solubility (mole fraction),"in n-butanol, 313.15 K",0.0098
same,solubility (mole fraction),"in n-butanol, 318.15 K",0.0112
same,solubility (mole fraction),"in n-butanol, 323.15 K",0.0131
same,solubility (mole fraction),"in n-butanol, 333.15 K",0.0168
same,solubility (mole fraction),"in n-butanol, 338.15 K",0.0189
same,solubility (mole fraction),"in n-propanol, 303.25 K",0.0137
same,solubility (mole fraction),"in n-propanol, 308.75 K",0.0165
same,solubility (mole fraction),"in n-propanol, 313.75 K",0.0193
same,solubility (mole fraction),"in n-propanol, 318.15 K",0.0223
same,solubility (mole fraction),"in n-propanol, 323.15 K",0.0256
same,solubility (mole fraction),"in n-propanol, 328.15 K",0.0293
same,solubility (mole fraction),"in n-propanol, 333.15 K",0.0334
same,solubility (mole fraction),"in n-propanol, 338.15 K",0.0392
same,solubility (mole fraction),"in sec-butanol, 303.15 K",0.00989
same,solubility (mole fraction),"in sec-butanol, 308.15 K",0.0119
same,solubility (mole fraction),"in sec-butanol, 313.15 K",0.0139
same,solubility (mole fraction),"in sec-butanol, 323.15 K",0.0192
same,solubility (mole fraction),"in sec-butanol, 328.15 K",0.0222
same,solubility (mole fraction),"in sec-butanol, 338.15 K",0.0297
same,solubility (mole fraction),"in tert-butanol, 303.15 K",0.0216
same,solubility (mole fraction),"in tert-butanol, 308.15 K",0.0237
same,solubility (mole fraction),"in tert-butanol, 313.15 K",0.0268
same,solubility (mole fraction),"in tert-butanol, 318.15 K",0.0293
same,solubility (mole fraction),"in tert-butanol, 323.15 K",0.0315
same,solubility (mole fraction),"in tert-butanol, 328.15 K",0.0351
same,solubility (mole fraction),"in tert-butanol, 333.15 K",0.0375
same,solubility (mole fraction),"in tert-butanol, 338.15 K",0.0421
